{
  "source": "paper PMC7596511",
  "about": "(Scientific Reports, 2020)",
  "key": {"AgamOBP5": {"target": "T1, AgamOBP5 (Anopheles gambiae, UniProt Q8T6R6)", "T1 sequence (Q8T6R6 32-154)": "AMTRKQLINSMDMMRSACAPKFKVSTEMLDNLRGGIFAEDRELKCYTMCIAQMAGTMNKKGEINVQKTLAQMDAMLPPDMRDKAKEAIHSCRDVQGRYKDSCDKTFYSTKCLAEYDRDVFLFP", "assay": "Fluorescence competitive binding test (FCBT), 1-NPN probe", "parameters": "species or system Anopheles gambiae s.s.", "description": "(§1) For recombinant OBPs, we first need to obtain the OBPs related genes. DNA of A. gambiae s.s. female adults was extracted following the procedure used in a previous study. The predicted AgamOBPs and AgamORs were detected using standard PCR with specific respective primers which were designed using Primer Premier 5 (Premier Biosoft, California, USA; Table S1). Each PCR mixture contained 1 μl of A. gambiae s.s. […] (200 ng·ml^−1; previously extracted using a DNA extraction kit from Transgen Biotech, Beijing, China), 12.5 μl prime STAR Max Premix (2 ×), 1.5 μl of each primer ([…]), and […] sterilized H2O. The PCR cycling conditions were as follows: an initial denaturation at 94 °C for 40 s, followed by 35 cycles at […] for 40 s (denaturing), 59 °C for 50 s (annealing) and 72 °C for 3 min. The PCR products were verified and sent for sequencing. Recombinant proteins were generated by transforming plasmids containing the verified […] genes into Escherichia coli BL21 (DE3) cells. We then induced recombinant protein expression using 1 mM isopropyl ß-D-1-thiogalactopyranoside at 37 °C for 6 h. The recombinant proteins were purified using two rounds of […] ion affinity chromatography (GE Healthcare, Milwaukee, WI, USA), following the manufacturer's instructions[5],[53]; the His-tags were removed simultaneously using recombinant enterokinase (Novagen, Madison, WI, USA), following the manufacturer's instructions. The purified proteins were desalted using extensive dialysis. The size and purity of each desalted protein were determined using 15% sodium dodecylsulphate-polyacrylamide gel electrophoresis (SDS-PAGE)[55].\n(§2) This assay assumes that the receptors are 100% active, and that each receptor can only bind to one ligand[56].\n(§3) Recombinant proteins were dissolved in 50 mM Tris–HCl protein buffer to yield a final concentration of […], respectively. The fluorescence competitive binding were conducted in a 1-cm quartz cell and the fluorescence intensity F95S fluorescence spectrophotometer (Shanghai Lengguang Technology Co., Ltd., Shanghai, China) at 25 °C with the following parameters: excitation of 10 nm; emission slit of 10 nm; sensitivity of 2 s; gain value of 2; excitation wavelength of 337 nm; and an emission wavelength range of 370–500 nm, as a previous study.\n(§4) First, the binding constant (Kd) for each recombinant protein to the 1-N-phenyl-naphthylamine (1-NPN) fluorescent probe was detected. In brief, 2 ml of protein solution and 2 μl of 1-NPN solution were added to the quartz cell and thoroughly mixed for 1 min. Peak fluorescence was continuously recorded until it stabilized and began to decrease.\n(§5) Next, the ligands were added to the quartz cell along with each receptor, in order to competitively bind to the fluorescent probe. In brief, 2 ml of protein solution and 2 ml of 1-NPN solution were added to the quartz cell, and the fluorescence peaks were scanned and recorded. Then, 2 μl of each ligand was added and allowed to sit for 1 min before the peak fluorescence was scanned and recorded. We then continued to add 2 μl aliquots of the ligand solution until the fluorescence was less than half of the initial value.\n(§6) The binding curves were then linearized using a Scatchard plot, which calculates the concentration of the competitor that halves the initial fluorescence intensity (IC50)."}, "AgamOBP20": {"target": "T2, AgamOBP20 (Anopheles gambiae, UniProt Q7Q9J3)", "T2 sequence (Q7Q9J3 24-142)": "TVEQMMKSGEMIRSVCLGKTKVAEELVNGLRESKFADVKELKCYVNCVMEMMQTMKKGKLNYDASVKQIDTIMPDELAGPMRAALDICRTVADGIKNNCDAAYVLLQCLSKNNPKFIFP", "assay": "Fluorescence competitive binding test (FCBT), 1-NPN probe", "parameters": "species or system Anopheles gambiae s.s.", "description": "as §1, §2, §3, §4, §5, §6"}, "AgamORC7": {"target": "T3, AgamORC7 (Anopheles gambiae, UniProt Q7QCC7)", "T3 construct": "His-tag (cleaved yes); made in house; host or cells: Escherichia coli BL21 (DE3)", "T3 sequence (Q7QCC7 1-478)": "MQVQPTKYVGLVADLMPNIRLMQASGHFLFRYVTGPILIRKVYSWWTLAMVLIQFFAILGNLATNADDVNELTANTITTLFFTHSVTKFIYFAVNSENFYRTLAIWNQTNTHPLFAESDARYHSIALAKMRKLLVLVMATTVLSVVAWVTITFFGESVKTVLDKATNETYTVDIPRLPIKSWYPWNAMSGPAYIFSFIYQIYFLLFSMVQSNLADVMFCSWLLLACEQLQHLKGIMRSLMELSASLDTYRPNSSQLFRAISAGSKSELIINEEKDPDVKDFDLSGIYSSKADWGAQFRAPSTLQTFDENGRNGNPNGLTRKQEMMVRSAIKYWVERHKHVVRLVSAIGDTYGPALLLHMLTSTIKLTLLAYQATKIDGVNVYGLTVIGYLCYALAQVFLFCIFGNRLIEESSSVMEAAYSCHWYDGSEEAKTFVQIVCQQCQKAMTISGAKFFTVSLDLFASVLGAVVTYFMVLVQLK", "assay": "Fluorescence competitive binding test (FCBT), 1-NPN probe", "parameters": "species or system Anopheles gambiae s.s.", "description": "as §1, §2, §3, §4, §5, §6"}, "AgamOBP4": {"target": "T4, AgamOBP4 (Anopheles gambiae, UniProt Q8T6R7)", "T4 sequence (Q8T6R7 26-150)": "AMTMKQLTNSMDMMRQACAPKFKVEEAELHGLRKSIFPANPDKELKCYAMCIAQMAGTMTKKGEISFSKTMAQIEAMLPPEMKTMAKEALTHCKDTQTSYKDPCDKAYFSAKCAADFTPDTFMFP", "assay": "Fluorescence competitive binding test (FCBT), 1-NPN probe", "parameters": "species or system Anopheles gambiae s.s.", "description": "as §1, §2, §3, §4, §5, §6"}, "[1]": {"system": "Anopheles gambiae s.s. females", "assay": "Dual-choice Y-tube olfactory meter repellency test", "format": "in vivo", "description": "A glass Y-tube (1.6 cm i.d., 12-cm base , two 8-cm arms at a 45° angle from one another) olfactory meter described in our previous study was used in this experiment. […] The control cotton ball with triethyl citrate (without citronellal) was inserted into the other jar. Teflon tube was used to connect all parts of Y-tube olfactory meter. Fresh air was produced by an air pump at a rate of 200 ± 10 ml/min, and purified by active carbon and silicone before flowing into the jars. The headspace of citronellal volatile was combined with the purified air and went through one arm of the Y-tube while purified air without citronellal went through the other arm. The base of the Y-tube was connected to an air collection bottle. One hundred female A. gambiae s.s. were individually released in the air collection bottle (2-cm i.d., 8-cm high), where behavioral responses were monitored and recorded over a 300 s period. The collecting jar, Y-tubes, air collection bottle were cleaned with hot water (> 60 °C) after every 10 individuals were tested, and the cotton roll was renewed every 2 h. The olfactory test was repeated five times."}},
  "note": "Entries after “also recorded” stand apart in the source; their conditions may differ.",
  "data": [
    {"smiles": "c1ccc(Nc2cccc3ccccc23)cc1", "note": "[1-NPN, 1-N-phenyl-naphthylamine]", "values": [
      {"measurement": "Kd", "setting": "AgamOBP5", "result": 2.44, "unit": "µM"},
      {"measurement": "Kd", "setting": "AgamOBP20", "result": 2.17, "unit": "µM"},
      {"measurement": "Kd", "setting": "AgamORC7; Fig. 5 panel d, Scatchard, unit inferred", "result": 1.12, "unit": "µM"},
      {"measurement": "Kd", "setting": "AgamOBP4", "result": 1.14, "unit": "µM"}
    ]},
    {"smiles": "CC(C)=CCCC(C)CC=O", "note": "(stereo not drawn) [citronellal]", "values": [
      {"measurement": "repellent rate for 50% of individuals (RQ50)", "setting": "[1]; Y-tube, quantity series 0.01-100 nmol on cotton ball, Probit analysis", "result": 4.02, "unit": "nmol"},
      {"measurement": "Lg(RQ50)", "setting": "[1]; regression of citronellal quantity vs repellent rate, Fig. 1", "result": 0.604},
      {"measurement": "binding of citronellal in words", "setting": "AgamOBP5; competition with 1-NPN", "result": "could not reduce fluorescent rate down below 50%; also recorded: cannot bind well"},
      {"measurement": "binding of citronellal in words", "setting": "AgamOBP20; competition with 1-NPN", "result": "could not reduce fluorescent rate down below 50%; also recorded: cannot bind well"},
      {"measurement": "IC50", "setting": "AgamORC7; competition with 1-NPN, 25 °C", "result": 2.23, "unit": "µM"},
      {"measurement": "Ki", "setting": "AgamORC7; competition with 1-NPN, 25 °C", "result": 1.57, "unit": "µM"},
      {"measurement": "IC50", "setting": "AgamOBP4; competition with 1-NPN, 25 °C", "result": 1.23, "unit": "µM"},
      {"measurement": "Ki", "setting": "AgamOBP4; competition with 1-NPN, 25 °C", "result": 0.71, "unit": "µM"}
    ]}
  ]
}
